Reference: ChEMBL document CHEMBL1201862, “PubChem BioAssay data set” (2004)
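Grown in 96-well plates, cells were treated for 48 hours with each compound at five concentrations. Insufficient inhibition: endpoint recorded as highest concentration tested. GI50 is the concentration that inhibits growth by half.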 Calls of active or inactive are those of the source. Cut-off read from the data, not from the text of the source: active = GI50 up to about 1.1 µM and inactive = higher.

Assays:
Test in all cases: NCI anticancer screen, dose series, 48 h
HCC 2998 = system: HCC 2998
HL-60 = system: HL-60
COLO 205 = system: COLO 205
A498 = system: A498
UACC-62 = system: UACC-62
SF-539 = system: SF-539
HT-29 = system: HT-29
SK-MEL-2 = system: SK-MEL-2
NCI-H460 = system: NCI-H460
NCI/ADR-RES = system: NCI/ADR-RES
A549 = system: A549
RPMI-8226 = system: RPMI-8226
U-251 = system: U-251
SN12C = system: SN12C
Malme-3M = system: Malme-3M
UO-31 = system: UO-31
SK-MEL-5 = system: SK-MEL-5
NCI-H522 = system: NCI-H522
SNB-75 = system: SNB-75

Measured: GI50

Cc1cn([C@@H]2O[C@H](CO[Si](C)(C)C(C)(C)C)[C@]3(O[C@H]3C(=O)NO)[C@H]2O[Si](C)(C)C(C)(C)C)c(=O)[nH]c1=O
inactive: HCC 2998 1.61 µM | HL-60 1.61 µM | COLO 205 1.76 µM | A498 1.9 µM | UACC-62 1.82 µM | SF-539 1.5 µM | HT-29 1.53 µM | SK-MEL-2 2.01 µM | NCI-H460 1.69 µM | NCI/ADR-RES 5.7 µM | A549 1.82 µM | RPMI-8226 1.18 µM | U-251 1.7 µM | SN12C 1.61 µM | Malme-3M 2.14 µM | UO-31 1.74 µM | SK-MEL-5 1.92 µM | NCI-H522 1.52 µM | SNB-75 1.71 µM

S=C1NC2=C(COc3ccccc32)C(c2ccc(Cl)cc2)N1 (stereo not given)
inactive: HL-60 13.9 µM | COLO 205 18.7 µM | A498 18.1 µM | UACC-62 17.4 µM | SF-539 16.6 µM | HT-29 15.5 µM | SK-MEL-2 15.3 µM | NCI/ADR-RES 18.9 µM | A549 20.2 µM | RPMI-8226 5.78 µM | U-251 > 10 µM | SN12C 2.54 µM | UO-31 18.4 µM | SK-MEL-5 15 µM | SNB-75 20 µM

CN(CCc1ccccn1)c1ccc2c(c1)C(=O)c1ccccc1-2
inactive: HCC 2998 > 100 µM | COLO 205 35.5 µM | A498 35.2 µM | UACC-62 46.1 µM | HT-29 66.4 µM | SK-MEL-2 28.5 µM | NCI-H460 9.68 µM | NCI/ADR-RES > 100 µM | A549 14.4 µM | RPMI-8226 38.3 µM | U-251 43.3 µM | SN12C 53.8 µM | Malme-3M > 100 µM | UO-31 > 100 µM | SK-MEL-5 35.1 µM | NCI-H522 71.1 µM | SNB-75 99.1 µM

Cc1[nH]c2ncn3ncnc3c2c1Cc1ccccc1
inactive: HCC 2998 > 100 µM | HL-60 > 100 µM | COLO 205 > 100 µM | A498 > 100 µM | UACC-62 > 100 µM | SF-539 > 100 µM | HT-29 > 100 µM | SK-MEL-2 > 100 µM | NCI-H460 > 100 µM | NCI/ADR-RES > 100 µM | A549 > 100 µM | U-251 > 100 µM | SN12C > 100 µM | Malme-3M > 100 µM | UO-31 > 100 µM | SK-MEL-5 > 100 µM | NCI-H522 > 100 µM | SNB-75 > 100 µM

CC(=O)/C(=C/NC(=S)c1cccnc1)C(=O)Nc1ccccc1C
inactive: HCC 2998 > 100 µM | HL-60 2.37 µM | COLO 205 > 100 µM | A498 > 100 µM | UACC-62 > 100 µM | SF-539 30.9 µM | HT-29 > 100 µM | SK-MEL-2 > 100 µM | NCI-H460 > 100 µM | NCI/ADR-RES 97.5 µM | A549 > 100 µM | RPMI-8226 > 100 µM | U-251 71.9 µM | SN12C > 100 µM | UO-31 > 100 µM | SK-MEL-5 > 100 µM | NCI-H522 96.6 µM | SNB-75 > 100 µM

CN(CCc1ccccn1)c1ccc2c(c1)Cc1ccccc1-2
inactive: HCC 2998 29.5 µM | HL-60 20.4 µM | COLO 205 15.7 µM | A498 16.8 µM | UACC-62 10.6 µM | HT-29 23.1 µM | NCI-H460 5.75 µM | NCI/ADR-RES 26.9 µM | A549 13.6 µM | RPMI-8226 14.1 µM | U-251 5.35 µM | SN12C 33.8 µM | Malme-3M 9.68 µM | UO-31 38.2 µM | SK-MEL-5 12.6 µM | NCI-H522 8.69 µM | SNB-75 17.9 µM

Clc1ccc2c(NCCCC/N=C/c3ccccc3)ccnc2c1
inactive: HCC 2998 14.5 µM | COLO 205 4.53 µM | A498 3.01 µM | SF-539 11.9 µM | HT-29 5.18 µM | SK-MEL-2 11.8 µM | NCI-H460 11 µM | NCI/ADR-RES 20.7 µM | A549 13.4 µM | RPMI-8226 18.1 µM | U-251 11 µM | SN12C 5.69 µM | Malme-3M 14.4 µM | UO-31 14.8 µM | SK-MEL-5 13.5 µM | NCI-H522 11.8 µM | SNB-75 11.1 µM

C[C@]12CC[C@@H]3c4ccc(OP(=O)(O)O)cc4CC[C@H]3[C@@H]1CCC2=O
inactive: HCC 2998 > 100 µM | HL-60 71.4 µM | COLO 205 > 100 µM | A498 > 100 µM | UACC-62 66.2 µM | SF-539 81.8 µM | HT-29 63.1 µM | SK-MEL-2 62.5 µM | NCI-H460 91.6 µM | NCI/ADR-RES 56 µM | A549 90.2 µM | RPMI-8226 44.4 µM | U-251 93.3 µM | SN12C 70.1 µM | Malme-3M > 100 µM | UO-31 80.7 µM | SK-MEL-5 28.4 µM | NCI-H522 33.4 µM | SNB-75 68.9 µM
